Data as given in PMC5760719, “Biotransformation of polyunsaturated fatty acids to bioactive hepoxilins and trioxilins by microbial enzymes” (Nature Communications, 2018).

Tests used:
Assay in all cases: product formation by HPLC
Type in all cases: biochemical
[1] = target: T1, EH (epoxide hydrolase, MXAN_1644) (Myxococcus xanthus, UniProt Q1DBS7); settings: pathway reaction with purified enzymes; HXD3 formed by 11-LOX, hydrolysis to TrXD3
T1 sequence (Q1DBS7 1-318): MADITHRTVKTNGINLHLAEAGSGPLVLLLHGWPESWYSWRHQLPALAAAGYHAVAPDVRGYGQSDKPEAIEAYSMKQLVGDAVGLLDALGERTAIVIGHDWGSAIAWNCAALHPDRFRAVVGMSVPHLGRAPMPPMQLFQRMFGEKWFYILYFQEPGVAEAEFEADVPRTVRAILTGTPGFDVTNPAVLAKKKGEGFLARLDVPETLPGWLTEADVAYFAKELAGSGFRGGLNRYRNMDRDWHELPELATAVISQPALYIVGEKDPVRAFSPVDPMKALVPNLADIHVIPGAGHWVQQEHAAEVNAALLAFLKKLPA

[2] = target: T2, 12-LOX (ARA 12-lipoxygenase, MXAN_1745) (Myxococcus xanthus, UniProt Q1DBH8); settings: pathway reaction with purified enzyme; dioxygenation to 12-HpEPE
T2 sequence (Q1DBH8 1-715): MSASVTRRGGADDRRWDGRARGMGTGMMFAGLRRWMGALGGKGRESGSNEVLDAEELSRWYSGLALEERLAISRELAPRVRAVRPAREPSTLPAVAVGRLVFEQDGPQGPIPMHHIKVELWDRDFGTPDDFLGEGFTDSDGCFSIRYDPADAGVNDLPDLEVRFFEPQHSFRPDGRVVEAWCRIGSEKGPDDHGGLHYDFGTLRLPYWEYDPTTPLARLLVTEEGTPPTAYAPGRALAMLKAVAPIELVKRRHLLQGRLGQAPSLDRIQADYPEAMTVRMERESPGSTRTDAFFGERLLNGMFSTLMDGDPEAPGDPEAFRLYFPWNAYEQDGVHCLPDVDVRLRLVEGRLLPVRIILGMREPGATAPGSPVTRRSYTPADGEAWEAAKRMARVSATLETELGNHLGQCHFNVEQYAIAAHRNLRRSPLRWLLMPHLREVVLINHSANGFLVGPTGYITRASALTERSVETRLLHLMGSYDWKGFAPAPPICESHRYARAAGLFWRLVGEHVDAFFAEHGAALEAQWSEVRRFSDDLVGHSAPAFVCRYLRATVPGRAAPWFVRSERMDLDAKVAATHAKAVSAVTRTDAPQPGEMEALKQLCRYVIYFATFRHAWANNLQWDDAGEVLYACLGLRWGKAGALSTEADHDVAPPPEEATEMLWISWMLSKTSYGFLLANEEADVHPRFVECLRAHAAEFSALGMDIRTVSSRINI

[3] = target: T3, 11-LOX (ARA 11-lipoxygenase, MXAN_1744) (Myxococcus xanthus, UniProt Q1DBH9); settings: pathway reaction with purified enzyme; dioxygenation to 11-HpEPE
T3 sequence (Q1DBH9 1-675): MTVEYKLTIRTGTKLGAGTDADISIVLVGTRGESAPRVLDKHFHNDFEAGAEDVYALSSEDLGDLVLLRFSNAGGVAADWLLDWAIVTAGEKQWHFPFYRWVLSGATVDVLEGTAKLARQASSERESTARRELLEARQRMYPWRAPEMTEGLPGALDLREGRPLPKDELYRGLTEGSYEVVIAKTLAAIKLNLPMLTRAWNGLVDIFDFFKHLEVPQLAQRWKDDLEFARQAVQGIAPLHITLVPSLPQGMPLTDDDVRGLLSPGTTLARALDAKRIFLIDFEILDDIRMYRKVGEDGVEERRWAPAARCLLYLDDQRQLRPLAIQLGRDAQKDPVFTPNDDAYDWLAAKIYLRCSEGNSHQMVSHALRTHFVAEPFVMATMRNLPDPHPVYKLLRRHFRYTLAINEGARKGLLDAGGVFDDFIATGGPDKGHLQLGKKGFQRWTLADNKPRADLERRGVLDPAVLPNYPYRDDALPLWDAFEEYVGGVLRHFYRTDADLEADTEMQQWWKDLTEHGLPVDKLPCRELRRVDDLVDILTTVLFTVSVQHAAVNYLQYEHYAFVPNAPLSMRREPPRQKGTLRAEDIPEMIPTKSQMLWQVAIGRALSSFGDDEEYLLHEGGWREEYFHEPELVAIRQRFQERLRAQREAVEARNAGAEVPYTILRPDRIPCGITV

SMILES: CCCCC/C=C\C(O)C1OC1C/C=C\C/C=C\CCCC(=O)O (stereo not drawn) [HXD3]
- product formation by HPLC [1]: HXB3 and HxD3, respectively, which were then converted to TrXB3 and TrXD3, respectively, by EH

SMILES: CC/C=C\C/C=C\C/C=C\C/C=C\C/C=C\CCCC(=O)O [EPA, eicosapentaenoic acid]
- product formation by HPLC [2]: 12-LOX and 11-LOX converted EPA to 12-hydroperoxypentaenoic acid (HpEPE) and 11-HpEPE, respectively
- product formation by HPLC [3]: 12-LOX and 11-LOX converted EPA to 12-hydroperoxypentaenoic acid (HpEPE) and 11-HpEPE, respectively
